Test results taken from US8338414B2, “Immunosuppressive agent and anti-tumor agent comprising heterocyclic compound as active ingredient” (Zenyaku Kogyo KabushikiKaisha, priority 2005, dated 2012).
Where two headings read alike, the source gives them in different places.

Legend:
[1] = Test for measuring blood level; type: in vivo; settings: mouse, serum; BDF1 male mice, 200 mg/kg oral, one hour after the administration
Description: A pharmacokinetic study was performed using 6 week-old BDF1 male mice. The test substances were mixed with hydroxylpropylcellulose (low-molecular weight form) [HPC(L)] in 2.5-fold of the drug weight, and dissolved in dichloromethane. The solvent was evaporated to dryness. To make the dosing formation, the residue was suspended in distilled water to prepare the drug level of 20 mg/mL. The test compounds were administered compulsorily and orally at a dose of 200 mg/kg to the mice that had been starved for 16 hours. One hour after the administration, blood was collected from the orbits of two mice to obtain serum. Internal standards solution and 1 ml of distilled water were added to 100 μL, of serum thus obtained, and then extracted with diethylether. The solvent was evaporated under vacuum, and the residue was resolved with eluent to provide samples for the HPLC measurement. HPLC was performed by using reversed-phase type column, and acetonitrile-phosphate buffer (pH 2.5) was used as the eluent. Using regression curves (Y=aX+b) obtained from the standards, the drug levels in the sample serum were calculated.

[2] = test system: Jurkat cells; experiment: Proliferation inhibitory activity on hematologic neoplasm cells, Jurkat; type: cell-based; settings: Homo sapiens, Jurkat, 72 h; 3 days, Alamar Blue
Description: (§1) Daudi cells (5×10^5 cells/mL), Jurkat cells (5×10^5 cells/mL), THP-1 cells (5×10^5 cells/mL), U 937 cells (5×10^5 cells/mL), and HL 60 cells (5×10^5 cells/mL) suspended in RPMI 1640 medium (containing 10% fetal bovine serum, 10 mM HEPES, 1 mM pyruvic acid, 4.5 g/L glucose, 100 units/mL penicillin, and 0.1 mg/mL streptomycin) were seeded in 96 well plates at a capacity of 0.135 mL per well. Serial dilutions of test substances were added to respective wells at 15 μL/well, and incubated under conditions of carbon dioxide 5% at 37° C. for 3 days. Thereafter, Alamar Blue solution was added at 50 μL, and after incubation for one day, the fluorescence intensity at 590 nm using an excitation wavelength of 530 nm was determined by Cytoflour 4000 (Applied Biosystems).

[3] = test system: Salmonella typhimurium TA98, TA100, TA1535, TA1537 and Escherichia coli WP2uvrA; experiment: Ames test; type: cell-based; settings: preincubation method, with or without S-9, up to 5000 μg/flat plate
Description: Using 5 strains of Salmonella typhimurium TA98, TA100, TA1535, TA1537 and Escherichia coli WP2uvrA, the test substances (Compound 4, Compound 19, Compound 22 and Compound 24) were tested for their mutagenesis according to a preincubation method.

[4] = test system: mouse spleen cells; experiment: Proliferation inhibition assay for mouse spleen cells; type: cell-based; settings: 72 h, 3 days, Alamar Blue
Procedure, shortened: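 C57BL/6N female mouse spleen cells (2×10^6 cells/mL) stimulated with Con A (3 μg/mL), LPS (100 μg/mL) or anti-mouse IgM (100 μg/mL) alongside serially diluted compounds, 3 days at 37° C, 5% CO2. Alamar Blue added for a further day; fluorescence read at ex 530/em 590 nm.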

[5] = test system: THP-1 cells; experiment: Proliferation inhibitory activity on hematologic neoplasm cells, THP-1; type: cell-based; settings: Homo sapiens, THP-1, 72 h; 3 days, Alamar Blue
Description: as §1

[6] = test system: Daudi cells; experiment: Proliferation inhibitory activity on hematologic neoplasm cells, Daudi; type: cell-based; settings: Homo sapiens, Daudi, 72 h; 3 days, Alamar Blue
Description: as §1

[7] = test system: fulminant hepatitis; experiment: Fulminant hepatitis model (galactosamine and LPS); type: in vivo, mouse; settings: BALB/c mice, galactosamine 800 mg/kg and LPS 110 μg/kg i.p.
Description: BALB/c male mice (7 weeks old, purchased from Charles River Laboratories Japan Inc.) were used in the experiment. After having orally administered the test substances suspended in 5% HPC, galactosamine (800 mg/kg) and LPS (110 μg/kg) were intraperitoneally administered. Then, survival rates at 72 hours after administration were obtained.

[8] = test system: human peripheral blood mononuclear cells; experiment: Proliferation inhibition assay for human peripheral blood mononuclear cells; type: cell-based; settings: Homo sapiens, 72 h; PBMC, anti-CD3 and anti-CD28 antibody, 3 days, Alamar Blue
Description: 4 mL of blood collected from healthy subjects was placed on 3 mL of MonoPoly Resolving Medium, and after centrifugation, the mononuclear cell (PBMC) fraction was collected. After washing with saline, PBMC (1×10^5 cells/mL) was suspended in RPMI 1640 medium (containing 10% fetal bovine serum, 10 mM HEPES, 1 mM pyruvic acid, and 4.5 g/L glucose). Next, after having added an anti-CD28 antibody (1 μg/mL) to the suspension, they were seeded on an anti-human CD3 T cell activation plate (BD Bioscience) at a capacity of 0.135 mL per well. Then, serial dilutions of test substances were added to respective wells, and incubated under conditions of carbon dioxide 5% at a temperature 37° C. After 3 days, Alamar Blue solution was added at 50 μL per well, and after incubation for one day, a fluorescence intensity at 590 nm using an excitation wavelength of 530 nm was determined by Cytoflour 4000 (Applied Biosystems).

[9] = test system: HL 60 cells; experiment: Proliferation inhibitory activity on hematologic neoplasm cells, HL60; type: cell-based; settings: Homo sapiens, HL-60, 72 h; 3 days, Alamar Blue
Description: as §1

[10] = test system: U 937 cells; experiment: Proliferation inhibitory activity on hematologic neoplasm cells, U937; type: cell-based; settings: Homo sapiens, U-937, 72 h; 3 days, Alamar Blue
Description: as §1

[11] = test system: human peripheral blood mononuclear cells; experiment: Activation inhibition assay for human peripheral blood mononuclear cells (CD40L, CD69 expression); type: cell-based; settings: PBMC, anti-CD3 + anti-CD28, 6 hours, flow cytometry
Description: In accordance with the method of Assay Example 2, PBMC (2×10^6 cells/mL) was isolated from human peripheral blood, suspended in RPMI 1640 medium (containing 10% fetal bovine serum, 10 mM HEPES, 1 mM pyruvic acid, and 4.5 g/L glucose), and seeded in wells of a 96 well plate at 0.225 mL per well. The test substances were added to respective wells, and then an anti-CD3 antibody (2 μg/mL) and an anti-CD28 antibody (1 μg/mL) were added. Then, after incubation under conditions of carbon dioxide 5% at a temperature 37° C. for 6 hours, the expressions of CD40L and CD69, activation markers, were analysed by flow cytometry. As a result, when the cells were stimulated by both an anti-CD3 antibody and an anti-CD28 antibody, CD40L was expressed on 14.4% of PBMC, which was also CD4 positive. However, the proportion of the cells which expressed CD40L decreased when the cells had been treated with test substances (Compound 4: 4.9%; Compound 20: 3.7%, Compound 24: 3.6%).

[12] = test system: Rabbit synoviocytes HIG-82; experiment: Inhibition assay for proliferation of rabbit synoviocyte; type: cell-based; settings: Oryctolagus cuniculus, 72 h; HIG-82, 3 days, Alamar Blue
Description: Rabbit synoviocytes HIG-82 suspended in HAM medium (containing 10% fetal bovine serum, 25 mM HEPES, and 0.1 mg/mL kanamycin) (with 4×10^4 cells/mL) were seeded in wells of a 96 well plate at 0.135 mL per well. Then, 15 μL of each of serial dilutions of test substances was added to a respective well, and incubated under conditions of carbon dioxide 5% at a temperature 37° C. Alamar Blue solution was added at 50 μL per well on day 0 and day 3, and incubated for one day, and thereafter fluorescence intensity at 590 nm using an excitation wavelength of 530 nm was determined by Cytoflour 4000 (Applied Biosystems).

[13] = test system: allogeneic mixed lymphocyte reaction; experiment: Allogeneic mixed lymphocyte reaction; type: cell-based, mouse; settings: Mus musculus, Lymphocyte; C57BL/6N spleen stimulator cells, BALB/c lymph node responder cells, 86 hours, BrdU
Description: Spleen cells prepared from C57BL/6N female mice (8-10 weeks old, purchased from Charles River Laboratories Japan Inc.) and peripheral lymph node mononuclear cells prepared from BALB/c female mice (8-10 weeks old, purchased from Charles River Laboratories Japan Inc.) were used as stimulator cells and responder cells, respectively. The respective cells were suspended in RPMI 1640 medium (containing 10% fetal bovine serum, 100 units/mL penicillin, and 0.1 mg/mL streptomycin) (with 2×10^6 cells/mL).

[14] = LPS 100 μg/mL, read-out: Inhibition of LPS response
[15] = concanavalin A 3 μg/mL, read-out: Inhibition of Con A response
[16] = anti-mouse IgM antibody 100 μg/mL, read-out: Inhibition of Anti-IgM antibody response

Question: For `COc1cccc2c1nc(C(F)F)n2-c1nc(N2CCOCC2)cc(N2CCO[C@@H](C)[C@H]2C)n1` (relative stereo) [Compound 37, 2-(2-Difluoromethyl-4-methoxybenzimidazol-1-yl)-4-(cis-2,3-dimethylmorpholino)-6-morpholinopyrimidine], which melting point is on record?
Answer: 176 to 178 °C

Question: And the concentration at 1 h [1]?
Answer: 4760 ng/mL

Question: Which results are given for `CC1(C)CN(c2nc(N3CCOCC3)nc(-n3c(C(F)F)nc4c(Cl)cc(N)cc43)n2)CCO1` [Compound 19, 2-(6-Amino-4-chloro-2-difluoromethylbenzimidazol-1-yl)-4-(2,2-dimethylmorpholino)-6-morpholino-1,3,5-triazine]?
Answer: IC50 [2]: 1600 nM; melting point: 238 °C (dec.); mutagenesis (colony number of reverse mutation) [3]: negative; IC50 [4, 14]: 1 to 100 nM; IC50 [4, 15]: 1 to 100 nM; IC50 [5]: 120 nM; IC50 [6]: 21.2 nM

Question: For `OCC1CCCN1c1nc(N2CCOCC2)nc(-n2c(C(F)F)nc3c(O)cccc32)n1` (stereo not shown) [Compound 20, 2-(2-Difluoromethyl-4-hydroxybenzimidazol-1-yl)-4-(2-hydroxymethylpyrrolidin-1-yl)-6-morpholino-1,3,5-triazine], which IC50 [2] is on record?
Answer: 196 nM

Question: What about the “Survival Rate after 72 Hours” value ([7]; 50 mg/kg oral) of the same molecule?
Answer: 17%

Question: What about the “Survival Rate after 72 Hours” value ([7]; 100 mg/kg oral) of the same molecule?
Answer: 72%

Question: What about the IC50 [8] of the same molecule?
Answer: 8.15 nM

Question: What about the IC50 [9] of the same molecule?
Answer: 74.5 nM

Question: What about the IC50 [4, 14] of the same molecule?
Answer: ≤ 1 nM

Question: And the IC50 [4, 16]?
Answer: ≤ 1 nM

Question: What about the IC50 [4, 15] of the same molecule?
Answer: ≤ 1 nM

Question: And the IC50 [10]?
Answer: 252 nM

Question: What about the IC50 [5] of the same molecule?
Answer: 44 nM

Question: What about the “proportion of the cells which expressed CD40L” value ([11]; CD4 positive, 14.4% without test substance) of the same molecule?
Answer: 3.7%

Question: What about the “proportion of CD4-positive cells which expressed CD69” value ([11]; 28.8% without test substance) of the same molecule?
Answer: 10.1%

Question: What about the “proportion of CD4-negative cells which expressed CD69” value ([11]; 50.9% without test substance) of the same molecule?
Answer: 10.5%

Question: What about the IC50 [6] of the same molecule?
Answer: 8.23 nM

Question: And the IC50 [12]?
Answer: 122 nM

Question: What about the IC50 [13] of the same molecule?
Answer: 136 nM

Question: What does the source list for `CC1(C)COCCN1c1cc(N2CCOCC2)nc(-n2c(C(F)F)nc3c(O)cccc32)n1` [Compound 22, 2-(2-Difluoromethyl-4-hydroxybenzimidazol-1-yl)-4-(3,3-dimethylmorpholino)-6-morpholinopyrimidine]?
Answer: melting point: 204 to 206 °C; mutagenesis (colony number of reverse mutation) [3]: negative; IC50 [4, 14]: ≤ 1 nM; IC50 [4, 16]: ≤ 1 nM; IC50 [4, 15]: ≤ 1 nM

Question: Which results are given for `COc1cccc2c1nc(C(F)F)n2-c1nc(N2CCOCC2)cc(N2CCOC(C)(C)C2)n1` [Compound 36, 2-(2-Difluoromethyl-4-methoxybenzimidazol-1-yl)-4-(2,2-dimethylmorpholino)-6-morpholinopyrimidine]?
Answer: melting point: 166 to 168 °C; concentration at 1 h [1]: 7170 ng/mL

Question: Which results are given for `CCOc1cccc2c1nc(C(F)F)n2-c1nc(N2CCOCC2)cc(N2CCOC(C)(C)C2)n1` [Compound 38, 2-(2-Difluoromethyl-4-ethoxybenzimidazol-1-yl)-4-(2,2-dimethylmorpholino)-6-morpholinopyrimidine]?
Answer: melting point: 114 to 116 °C; concentration at 1 h [1]: 5910 ng/mL
